This note sets out measurements from patent US11993599B2, “Therapeutic compounds” (Genentech, Inc., priority 2021, dated 2024).

Assay [1] concerns the target BRM (Homo sapiens, UniProt P51531). Briefly: Immunofluorescence assay for BRM degradation in SW1573 cells. It is filed as cell-based. Details: treated overnight at 4° C. with either BRM primary antibody (Cell signaling Cat #11966) or BRG primary antibody; endogenous in cells; host or cells: SW1573. Particulars: 20 hours incubation; for DC50: immunofluorescence mean nuclear signal, read-out: BRM IF Degradation IC50; for BRM IF Degradation Sinf (%): normalized to a known degrader control. The protocol:
(§1) Example B-2: Immunofluorescence Assay for BRM and BRG1 Degraders
(§2) SW1573 cells were seeded at 3000 cells/well in 384 well plates. The next day, compounds were added using an Echo dispenser. After 20 hours of incubation with compound, cells were fixed with 4% formaldehyde then permeabilized with 0.2% Triton X-100 and blocked with 10% FCS. Fixed and permeabilized cells were treated overnight at 4° C. with either BRM primary antibody (Cell signaling Cat #11966) or BRG primary antibody (Abcam, ab 110641). Finally, cells were treated with fluorescently labeled secondary antibodies for 1 hr (Donkey anti-Rabbit IgG AF488, Life Technologies, A21206) and Hoechst nuclear stain (#H3569) was added for 30 minutes. Cells were washed with PBS in between each step and before imaging on an Opera Phenix microscope (Perkin Elmer). Harmony software (Perking Elmer) was used to quantify the mean nuclear signaling intensity of BRM or BRG signaling per cell in each well. Dose responses were determined from the concentration dependent response of mean nuclear signal intensity with data normalized to a known degrader control. Dose response curves were fit to a floating maximum to allow for calculation of the Dmax.
(§3) Note that, in Table 5, the “Compound Number” corresponds to that used in Table 1. In Table 5, for BRM and BRG1 IF degradation IC50 (μM): A indicates <0.010 μM, B indicates 0.010-0.10 μM, and C indicates >0.10 μM; and for BRM and BRG1 IF degradation Sinf % D indicates 0-−30%, E indicates −30%-−70%, F indicates −71%-−120% and ND indicates the value was not determined.

The target of assay [2] is T1, BRG1 (Homo sapiens, UniProt P51532).
T1 construct: either BRM primary antibody (Cell signaling Cat #11966) or BRG primary antibody (Abcam, ab 110641); endogenous in cells; host or cells: SW1573
Briefly: Immunofluorescence assay for BRG1 degradation in SW1573 cells. Type of assay: cell-based. The note with it: 20 hours incubation; for DC50: immunofluorescence mean nuclear signal, read-out: BRG1 IF Degradation IC50; for Dmax: SW1573, 20 h, normalized to a known degrader control, read-out: BRG1 IF Degradation Sinf (%). The protocol: as §1, §2, §3

T1 sequence (P51532 whole entry): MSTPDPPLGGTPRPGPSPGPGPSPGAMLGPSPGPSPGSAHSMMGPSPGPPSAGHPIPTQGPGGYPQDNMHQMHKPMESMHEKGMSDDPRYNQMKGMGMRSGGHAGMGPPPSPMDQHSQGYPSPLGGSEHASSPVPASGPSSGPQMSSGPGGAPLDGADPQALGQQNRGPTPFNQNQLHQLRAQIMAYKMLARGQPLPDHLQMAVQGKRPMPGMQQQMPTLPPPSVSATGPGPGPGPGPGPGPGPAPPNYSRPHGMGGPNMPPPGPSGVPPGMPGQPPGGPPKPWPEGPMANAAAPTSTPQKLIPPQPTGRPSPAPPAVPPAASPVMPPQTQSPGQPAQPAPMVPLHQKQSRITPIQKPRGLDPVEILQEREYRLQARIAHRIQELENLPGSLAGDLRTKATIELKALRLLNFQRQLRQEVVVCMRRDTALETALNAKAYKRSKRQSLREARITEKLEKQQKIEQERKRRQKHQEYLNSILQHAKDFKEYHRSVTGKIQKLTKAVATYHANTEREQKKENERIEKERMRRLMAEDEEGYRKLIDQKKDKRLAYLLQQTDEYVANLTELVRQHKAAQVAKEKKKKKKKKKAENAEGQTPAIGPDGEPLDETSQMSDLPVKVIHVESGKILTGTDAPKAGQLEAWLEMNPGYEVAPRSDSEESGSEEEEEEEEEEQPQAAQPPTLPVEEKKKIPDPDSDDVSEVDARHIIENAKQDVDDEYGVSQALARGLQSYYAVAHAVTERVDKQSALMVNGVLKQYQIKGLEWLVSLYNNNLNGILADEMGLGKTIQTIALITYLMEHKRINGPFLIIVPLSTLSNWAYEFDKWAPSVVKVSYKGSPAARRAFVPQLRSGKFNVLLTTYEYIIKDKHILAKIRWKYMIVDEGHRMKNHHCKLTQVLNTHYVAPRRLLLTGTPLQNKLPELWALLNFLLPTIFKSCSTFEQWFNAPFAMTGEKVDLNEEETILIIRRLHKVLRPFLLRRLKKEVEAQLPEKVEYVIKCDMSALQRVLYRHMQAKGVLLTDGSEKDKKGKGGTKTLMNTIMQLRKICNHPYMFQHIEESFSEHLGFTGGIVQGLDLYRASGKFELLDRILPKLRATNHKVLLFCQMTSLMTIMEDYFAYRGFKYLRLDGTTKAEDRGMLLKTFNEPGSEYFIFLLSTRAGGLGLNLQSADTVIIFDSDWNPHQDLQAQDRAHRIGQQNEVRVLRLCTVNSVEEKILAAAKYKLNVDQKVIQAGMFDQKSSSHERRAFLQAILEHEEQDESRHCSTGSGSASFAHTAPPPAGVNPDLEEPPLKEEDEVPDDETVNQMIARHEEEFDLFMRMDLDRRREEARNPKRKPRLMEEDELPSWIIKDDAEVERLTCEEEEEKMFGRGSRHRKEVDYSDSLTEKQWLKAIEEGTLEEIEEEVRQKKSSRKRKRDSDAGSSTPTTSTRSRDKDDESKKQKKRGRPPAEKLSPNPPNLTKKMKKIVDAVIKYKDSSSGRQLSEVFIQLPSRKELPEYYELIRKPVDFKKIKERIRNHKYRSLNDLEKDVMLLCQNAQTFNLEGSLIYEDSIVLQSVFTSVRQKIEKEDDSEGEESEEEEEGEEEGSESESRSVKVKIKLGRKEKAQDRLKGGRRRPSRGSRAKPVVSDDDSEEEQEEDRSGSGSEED
Chain of BRM (P51531 whole entry): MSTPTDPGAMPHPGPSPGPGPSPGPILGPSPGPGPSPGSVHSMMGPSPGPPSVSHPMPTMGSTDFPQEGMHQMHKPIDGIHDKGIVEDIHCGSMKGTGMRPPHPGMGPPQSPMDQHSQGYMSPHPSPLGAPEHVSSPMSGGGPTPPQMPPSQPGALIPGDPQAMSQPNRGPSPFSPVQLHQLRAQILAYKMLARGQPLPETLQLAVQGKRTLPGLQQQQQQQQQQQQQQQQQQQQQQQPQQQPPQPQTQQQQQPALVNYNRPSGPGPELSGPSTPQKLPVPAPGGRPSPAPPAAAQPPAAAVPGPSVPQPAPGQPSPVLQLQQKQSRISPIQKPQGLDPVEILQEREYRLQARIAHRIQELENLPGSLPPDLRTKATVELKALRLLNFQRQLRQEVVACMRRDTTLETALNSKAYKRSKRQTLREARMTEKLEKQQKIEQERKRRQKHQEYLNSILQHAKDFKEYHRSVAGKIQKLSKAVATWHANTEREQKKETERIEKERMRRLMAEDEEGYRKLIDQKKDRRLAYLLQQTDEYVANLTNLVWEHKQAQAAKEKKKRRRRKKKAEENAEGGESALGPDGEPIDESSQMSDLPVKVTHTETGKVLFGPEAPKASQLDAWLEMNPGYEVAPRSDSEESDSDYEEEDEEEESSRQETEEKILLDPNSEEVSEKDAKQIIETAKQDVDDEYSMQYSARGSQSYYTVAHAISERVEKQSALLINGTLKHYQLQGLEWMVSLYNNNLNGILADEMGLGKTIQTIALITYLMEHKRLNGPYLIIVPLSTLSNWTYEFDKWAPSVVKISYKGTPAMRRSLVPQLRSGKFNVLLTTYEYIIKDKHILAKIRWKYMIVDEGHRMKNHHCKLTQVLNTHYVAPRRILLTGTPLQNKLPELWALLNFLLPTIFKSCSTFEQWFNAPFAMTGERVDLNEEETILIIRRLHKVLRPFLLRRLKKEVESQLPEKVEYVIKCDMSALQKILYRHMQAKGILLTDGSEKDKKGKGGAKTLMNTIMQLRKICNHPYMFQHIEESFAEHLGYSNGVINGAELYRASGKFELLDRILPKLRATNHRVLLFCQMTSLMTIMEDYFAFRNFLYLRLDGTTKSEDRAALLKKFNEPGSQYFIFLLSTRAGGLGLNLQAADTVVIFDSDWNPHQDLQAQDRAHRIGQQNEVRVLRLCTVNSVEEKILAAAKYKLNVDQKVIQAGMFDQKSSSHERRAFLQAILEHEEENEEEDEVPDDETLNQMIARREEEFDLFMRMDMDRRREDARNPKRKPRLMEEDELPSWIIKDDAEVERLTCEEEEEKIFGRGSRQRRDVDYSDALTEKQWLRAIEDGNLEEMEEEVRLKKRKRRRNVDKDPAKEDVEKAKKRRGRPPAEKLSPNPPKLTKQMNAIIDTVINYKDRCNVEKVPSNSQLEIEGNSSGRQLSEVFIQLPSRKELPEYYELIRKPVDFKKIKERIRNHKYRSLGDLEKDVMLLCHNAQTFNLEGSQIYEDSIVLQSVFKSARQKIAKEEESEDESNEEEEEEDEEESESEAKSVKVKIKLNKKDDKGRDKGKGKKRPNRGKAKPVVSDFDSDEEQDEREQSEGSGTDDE

On to `Nc1nnc(-c2ccccc2O)cc1N1CC2CCC(C1)N2c1ccnc(C#CCN2CCC(F)(F)C2)c1` [Compound 43, 2-[6-amino-5-[8-[2-[3-(3,3-difluoropyrrolidin-1-yl)prop-1-ynyl]-4-pyridyl]-3,8-diazabicyclo[3.2.1]octan-3-yl]pyridazin-3-yl]phenol], for which, in assay [1], the DC50 is 10 to 100 nM and the “BRM IF Degradation Sinf (%)” value was “E (E indicates −30%-−70%)”. In assay [2], the DC50 is under 10 nM and the Dmax was 0 to 30%.
On the same counts, the results for `Nc1nnc(-c2ccccc2O)cc1N1CC2CCC(C1)N2c1ccnc(C#CCN2CCC3(CCCO3)C2)c1` (stereo not shown) [Compound 44, 2-[6-amino-5-[8-[2-[3-(1-oxa-7-azaspiro[4.4]nonan-7-yl)prop-1-ynyl]-4-pyridyl]-3,8-diazabicyclo[3.2.1]octan-3-yl]pyridazin-3-yl]phenol] are under 10 nM, “E (E indicates −30%-−70%)”, 10 to 100 nM and 30 to 70%.
On the same counts, the results for `Nc1nnc(-c2ccccc2O)cc1N1CC2CCC(C1)N2c1ccnc(C#CCN2CCC(CO)CC2)c1` [Compound 45, 2-(6-amino-5-(8-(2-(3-(4-(hydroxymethyl)piperidin-1-yl)prop-1-yn-1-yl)pyridin-4-yl)-3,8-diazabicyclo[3.2.1]octan-3-yl)pyridazin-3-yl)phenol] are 10 to 100 nM, “E (E indicates −30%-−70%)”, 10 to 100 nM and 30 to 70%.
On the same counts, the results for `Nc1nnc(-c2ccccc2O)cc1N1CC2CCC(C1)N2c1ccnc(C#CCN2CCC[C@H]2CO)c1` [Compound 46, 2-[6-amino-5-[8-[2-[3-[(2S)-2-(hydroxymethyl)pyrrolidin-1-yl]prop-1-ynyl]-4-pyridyl]-3,8-diazabicyclo[3.2.1]octan-3-yl]pyridazin-3-yl]phenol] are under 10 nM, “E (E indicates −30%-−70%)”, 10 to 100 nM and 30 to 70%.
Turning to `CN1CCCN(CC#Cc2cc(N3C4CCC3CN(c3cc(-c5ccccc5O)nnc3N)C4)ccn2)CC1` [Compound 47, 2-[6-amino-5-[8-[2-[3-(4-methyl-1,4-diazepan-1-yl)prop-1-ynyl]-4-pyridyl]-3,8-diazabicyclo[3.2.1]octan-3-yl]pyridazin-3-yl]phenol], in assay [1], the DC50 was over 100 nM and the “BRM IF Degradation Sinf (%)” value is recorded as “E (E indicates −30%-−70%)”. Also, in assay [2], the DC50 is over 100 nM and the Dmax fell in the range of 0 to 30%.
For `CC[C@@H]1COCCN1CC#Cc1cc(N2C3CCC2CN(c2cc(-c4ccccc4O)nnc2N)C3)ccn1` [Compound 48, 2-[6-amino-5-[8-[2-[3-[(3R)-3-ethylmorpholin-4-yl]prop-1-ynyl]-4-pyridyl]-3,8-diazabicyclo[3.2.1]octan-3-yl]pyridazin-3-yl]phenol], in assay [1], the DC50 is 10 to 100 nM and the “BRM IF Degradation Sinf (%)” value is “E (E indicates −30%-−70%)”. Besides, in assay [2], the DC50 is 10 to 100 nM and the Dmax lay within 0 to 30%.
Turning to `Nc1nnc(-c2ccccc2O)cc1N1CC2CCC(C1)N2c1ccnc(C#CCN2CC3(CCOCC3)C2)c1` [Compound 49, 2-[6-amino-5-[8-[2-[3-(7-oxa-2-azaspiro[3.5]nonan-2-yl)prop-1-ynyl]-4-pyridyl]-3,8-diazabicyclo[3.2.1]octan-3-yl]pyridazin-3-yl]phenol], in assay [1], the DC50 was under 10 nM and the “BRM IF Degradation Sinf (%)” value is given as “F (F indicates −71%-−120%)”. For the same compound, in assay [2], the DC50 was under 10 nM and the Dmax was in the range of 30 to 70%.
Regarding `Nc1nnc(-c2ccccc2O)cc1N1CC2CCC(C1)N2c1ccnc(C#CCN2CCCC(O)C2)c1` (stereo not shown) [Compound 50, 1-[3-[4-[3-[3-amino-6-(2-hydroxyphenyl)pyridazin-4-yl]-3,8-diazabicyclo[3.2.1]octan-8-yl]-2-pyridyl]prop-2-ynyl]piperidin-3-ol], in assay [1], the DC50 was in the range of 10 to 100 nM and the “BRM IF Degradation Sinf (%)” value was “E (E indicates −30%-−70%)”. In addition, in assay [2], the DC50 is over 100 nM and the Dmax was in the range of 30 to 70%.
On the same counts, the results for `CN(CC#Cc1cc(N2C3CCC2CN(c2cc(-c4ccccc4O)nnc2N)C3)ccn1)C1CCS(=O)(=O)C1` (stereo not shown) [Compound 51, 2-[6-amino-5-[8-[2-[3-[(1,1-dioxothiolan-3-yl)-methyl-amino]prop-1-ynyl]-4-pyridyl]-3,8-diazabicyclo[3.2.1]octan-3-yl]pyridazin-3-yl]phenol] are over 100 nM, “E (E indicates −30%-−70%)”, over 100 nM and 30 to 70%.
For `Nc1nnc(-c2ccccc2O)cc1N1CC2CCC(C1)N2c1ccnc(C#CCN2CCC(O)C2)c1` (stereo not shown) [Compound 52, 1-[3-[4-[3-[3-amino-6-(2-hydroxyphenyl)pyridazin-4-yl]-3,8-diazabicyclo[3.2.1]octan-8-yl]-2-pyridyl]prop-2-ynyl]pyrrolidin-3-ol], in that order: 10 to 100 nM, “E (E indicates −30%-−70%)”, 10 to 100 nM and 30 to 70%.
On the same counts, the results for `Nc1nnc(-c2ccccc2O)cc1N1CC2CCC(C1)N2c1ccnc(C#CCN2CCn3ccnc3C2)c1` [Compound 53, 2-[6-amino-5-[8-[2-[3-(6,8-dihydro-5H-imidazo[1,2-a]pyrazin-7-yl)prop-1-ynyl]-4-pyridyl]-3,8-diazabicyclo[3.2.1]octan-3-yl]pyridazin-3-yl]phenol] are 10 to 100 nM, “E (E indicates −30%-−70%)”, 10 to 100 nM and 0 to 30%.
Turning to `Nc1nnc(-c2ccccc2O)cc1N1CC2CCC(C1)N2c1ccnc(C#CCN2CC3CNCC3C2)c1` (stereo not shown) [Compound 54, 2-[5-[8-[2-[3-(2,3,3a,4,6,6a-hexahydro-1H-pyrrolo[3,4-c]pyrrol-5-yl)prop-1-ynyl]-4-pyridyl]-3,8-diazabicyclo[3.2.1]octan-3-yl]-6-amino-pyridazin-3-yl]phenol], in assay [1], the DC50 is over 100 nM and the “BRM IF Degradation Sinf (%)” value is “F (F indicates −71%-−120%)”. Besides, in assay [2], the DC50 was over 100 nM and the Dmax was in the range of 30 to 70%.
In the case of `Nc1nnc(-c2ccccc2O)cc1N1CC2CCC(C1)N2c1ccnc(C#CCN2CCCCC2CO)c1` (stereo not shown) [Compound 55, 2-[6-amino-5-[8-[2-[3-[2-(hydroxymethyl)-1-piperidyl]prop-1-ynyl]-4-pyridyl]-3,8-diazabicyclo[3.2.1]octan-3-yl]pyridazin-3-yl]phenol], in assay [1], the DC50 was in the range of 10 to 100 nM and the “BRM IF Degradation Sinf (%)” value was “E (E indicates −30%-−70%)”. Besides, in assay [2], the DC50 lay in the range of 10 to 100 nM and the Dmax is 30 to 70%.
Regarding `Nc1nnc(-c2ccccc2O)cc1N1CC2CCC(C1)N2c1ccnc(C#CCN2Cc3cccnc3C2)c1` [Compound 56, 2-[6-amino-5-[8-[2-[3-(5,7-dihydropyrrolo[3,4-b]pyridin-6-yl)prop-1-ynyl]-4-pyridyl]-3,8-diazabicyclo[3.2.1]octan-3-yl]pyridazin-3-yl]phenol], in assay [1], the DC50 is 10 to 100 nM and the “BRM IF Degradation Sinf (%)” value was “E (E indicates −30%-−70%)”. For the same compound, in assay [2], the DC50 is over 100 nM and the Dmax fell in the range of 0 to 30%.
In the case of `CC1COCCN1CC#Cc1cc(N2C3CCC2CN(c2cc(-c4ccccc4O)nnc2N)C3)ccn1` (stereo not shown) [Compound 57, 2-[6-amino-5-[8-[2-[3-(3-methylmorpholin-4-yl)prop-1-ynyl]-4-pyridyl]-3,8-diazabicyclo[3.2.1]octan-3-yl]pyridazin-3-yl]phenol], in assay [1], the DC50 is 10 to 100 nM and the “BRM IF Degradation Sinf (%)” value is “E (E indicates −30%-−70%)”. For the same compound, the DC50 in assay [2] is over 100 nM.
Consider `Nc1nnc(-c2ccccc2O)cc1N1CC2CCC(C1)N2c1ccnc(C#CCN2CCCCCC2)c1` [Compound 58, 2-(6-amino-5-(8-(2-(3-(azepan-1-yl)prop-1-yn-1-yl)pyridin-4-yl)-3,8-diazabicyclo[3.2.1]octan-3-yl)pyridazin-3-yl)phenol], for which, in assay [1], the DC50 was under 10 nM and the “BRM IF Degradation Sinf (%)” value is on record as “F (F indicates −71%-−120%)”. Besides, in assay [2], the DC50 was under 10 nM and the Dmax is 30 to 70%.
Take `C[C@@H]1CN(CC#Cc2cc(N3C4CCC3CN(c3cc(-c5ccccc5O)nnc3N)C4)ccn2)C[C@H](C)O1` [Compound 59, 2-[6-amino-5-[8-[2-[3-[(2S,6R)-2,6-dimethylmorpholin-4-yl]prop-1-ynyl]-4-pyridyl]-3,8-diazabicyclo[3.2.1]octan-3-yl]pyridazin-3-yl]phenol]: in assay [1], the DC50 fell in the range of 10 to 100 nM and the “BRM IF Degradation Sinf (%)” value is reported as “E (E indicates −30%-−70%)”. Further, in assay [2], the DC50 is under 10 nM and the Dmax lay in the range of 0 to 30%.
